Source: patent US6638981B2, “Topical compositions and methods for treating pain” (EpiCept Corporation, priority 2001, dated 2003)
Where a name gives a salt, the structure may show the parent alone.

Assay: Chemical and physical stability studies under ICH storage conditions (extraction, HPLC, appearance)
Format: physicochemical
Settings: in Composition A; for calculated initial percentage of actives: before storage, HPLC; for calc. percentage of actives after storage for one month, 25° C. / calc. percentage of actives after storage for two months, 25° C.: 25° C./60% RH; for calc. percentage of actives after storage for one month, 30° C. / calc. percentage of actives after storage for two months, 30° C.: 30° C./60% RH; for calc. percentage of actives after storage for one month, 40° C. / calc. percentage of actives after storage for two months, 40° C.: 40° C./75% RH

CCCOC(=O)c1ccc(O)cc1 [Propylparaben]
calculated initial percentage of actives: 101.8%
calc. percentage of actives after storage for one month, 25° C.: 102%
calc. percentage of actives after storage for two months, 25° C.: 102%
calc. percentage of actives after storage for one month, 30° C.: 102%
calc. percentage of actives after storage for two months, 30° C.: 103%
calc. percentage of actives after storage for one month, 40° C.: 102%
calc. percentage of actives after storage for two months, 40° C.: 103%

CN(C)CCC=C1c2ccccc2CCc2ccccc21 [Amitriptyline Hydrochloride, Amitriptyline hydrochloride]
calculated initial percentage of actives: 102.5%
calc. percentage of actives after storage for one month, 25° C.: 103%
calc. percentage of actives after storage for two months, 25° C.: 101%
calc. percentage of actives after storage for one month, 30° C.: 102%
calc. percentage of actives after storage for two months, 30° C.: 102%
calc. percentage of actives after storage for one month, 40° C.: 103%
calc. percentage of actives after storage for two months, 40° C.: 102%

COC(=O)c1ccc(O)cc1 [Methylparaben]
calculated initial percentage of actives: 104.4%
calc. percentage of actives after storage for one month, 25° C.: 103%
calc. percentage of actives after storage for two months, 25° C.: 101%
calc. percentage of actives after storage for one month, 30° C.: 102%
calc. percentage of actives after storage for two months, 30° C.: 102%
calc. percentage of actives after storage for one month, 40° C.: 102%
calc. percentage of actives after storage for two months, 40° C.: 102%

CNC1(c2ccccc2Cl)CCCCC1=O (stereo not shown) [Ketamine Hydrochloride, Ketamine hydrochloride]
calculated initial percentage of actives: 100.4%
calc. percentage of actives after storage for one month, 25° C.: 103%
calc. percentage of actives after storage for two months, 25° C.: 100%
calc. percentage of actives after storage for one month, 30° C.: 102%
calc. percentage of actives after storage for two months, 30° C.: 100%
calc. percentage of actives after storage for one month, 40° C.: 103%
calc. percentage of actives after storage for two months, 40° C.: 102%
